According to patent publication US20240279202A1 (NURIX THERAPEUTICS, INC., priority 2021, published 2024):
Counter-ions that a name gives are not always drawn.

Molecular target: T1, ITK (Mus musculus, UniProt Q03526)
T1 construct: mice were sacrificed and splenocytes were isolated and used to prepare protein lysates; from tissue; host or cells: mouse splenocytes (spleen) after oral dosing
T1 sequence (Q03526 1-625): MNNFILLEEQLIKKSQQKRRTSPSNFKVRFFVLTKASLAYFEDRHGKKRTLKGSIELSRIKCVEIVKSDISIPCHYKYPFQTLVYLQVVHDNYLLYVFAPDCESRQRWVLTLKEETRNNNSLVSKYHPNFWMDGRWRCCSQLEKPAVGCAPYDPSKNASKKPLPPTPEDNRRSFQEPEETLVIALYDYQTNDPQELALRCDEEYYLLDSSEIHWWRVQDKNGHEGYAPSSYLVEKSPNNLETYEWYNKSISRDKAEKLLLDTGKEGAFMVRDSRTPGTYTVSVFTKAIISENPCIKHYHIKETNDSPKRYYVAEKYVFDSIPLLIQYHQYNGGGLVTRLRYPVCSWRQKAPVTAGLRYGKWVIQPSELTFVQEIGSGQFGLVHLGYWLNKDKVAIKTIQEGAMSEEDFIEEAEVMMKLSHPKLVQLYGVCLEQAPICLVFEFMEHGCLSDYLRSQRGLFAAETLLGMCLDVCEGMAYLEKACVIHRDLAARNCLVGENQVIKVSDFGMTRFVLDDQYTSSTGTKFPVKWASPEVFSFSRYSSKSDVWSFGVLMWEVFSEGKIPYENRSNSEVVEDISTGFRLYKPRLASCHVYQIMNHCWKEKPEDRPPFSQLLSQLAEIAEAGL
Experiment: Mouse PD assay for ITK degradation (Western blot, splenocytes after oral administration)
Type: in vivo
Conditions: for ITK (%) 90 mpk PO, 6 h: percent ITK remaining in mouse splenocytes relative to vehicle; for ITK degradation in vivo at 6 hours (FIG. 3A, FIG. 4A) / ITK degradation in vivo at 24 hours (FIG. 3A, FIG. 4A): mice, oral, splenocytes, Western blot
Protocol: Compounds 1, 3, 7, and 42 were formulated and administered at 90 mg/kg to mice by oral gavage (PO). Blood was collected at defined time points (after 1, 2, and 6 hours) after compounds administration to determine PK parameters. Concentration increased through 6 hours. Six hours later mice were sacrificed and splenocytes were isolated and used to prepare protein lysates. Total protein levels were determined in the lysates using the BCA assay according to standard methods. Equal amounts of protein were then analyzed by Western blot to determine the level of ITK expression in each sample. ITK band intensities were measured using Alpha View software and the percent of ITK remaining in each test animal was determined relative to the mean of ITK levels in vehicle control samples.
After 6 hours, splenocytes cells were harvested. ITK was evaluated by Western blotting.
Compounds 43, 4, 5, 10, 11, 12, 44, 14, 3, and 13 were administered to mice orally. After 6 hours, splenocytes cells were harvested. ITK was evaluated by Western blotting. Media was removed and cell pellets were lysed in 100 uL lysis buffer (RIPA buffer (Fisher, PI89901), cOmplete Mini EDTA-free protease inhibitor (Sigma 11836170001), Protease Inhibitor Cocktail (Sigma, P2714), Phosphatase Inhibitor Cocktail 2 and 3 (Sigma, P5726 and P0044), Benzonase (Sigma, E1014)). Cells were lysed overnight at −20° C. Following thaw, cells were centrifuged for 10 min at 13000 rpm, then transferred to new tube. Protein levels were determined by BCA Assay performed according to manufacturer's protocol (EMID Millipore, cat. no. 71285-3). Samples were combined with (4×) LDS Sample Buffer and (10×) Reducing Agent and H2O to equally load 20 ug protein per lane of a 26-well NuPAGE 4-12% Bis-Tris protein gel (1.0 mm, Thermo cat. no. NP0326). Samples were separated by running gels at constant 150 V in NuPAGE MES SDS Running Buffer. Following electrophoresis, proteins were transferred to nitrocellulose membranes using an iBlot Gel Transfer Device and iBlot Gel Transfer Stacks (Thermo cat. no. IB21001 and IB301001) and transfer method P3 (20V for 7 min). Membranes were blocked for 1 hr in 5% milk solution (TBS (0.2% Tween-20)). Following blocking, membranes were incubated with primary antibody (1:1000 CST ITK (2F12) #2380) overnight at 4° C. with gentle shaking. Blots were washed 2× in TBS (0.2% Tween-20), 30 min per wash. Following washes, blots were incubated in secondary HRP-conjugated antibody (Promega anti-Mouse IgG (H+L) HRP cat. no. W4021), 1:5000 in 5% milk solution (TBS (0.2% Tween-20)), for 1 hr at room temperature with gentle shaking. Blots were washed 2× in TBS (0.2% Tween-20), 30 min per wash. Blots were incubated with 1:1 mix of ECL reagents 1 & 2 (Amersham ECL Western Blotting Detection Reagent, cat. no. RPN2106) for 2 min at room temperature. Bands were visualized using a Protein Simple imager. Blots were then re-probed with a combination of anti-actin antibody (Sigma Monoclonal Mouse Anti-3-Actin (clone AC-15), cat. no. A5441) and secondary H1RP-conjugated antibody (Promega anti-Mouse IgG (H+L) HRP, cat. no. W4021) and similar steps were taken for incubation, wash, detection and visualization steps as above. The data was analyzed using Alpha View software. The densitometric reading for each sample band was normalized to that of the corresponding actin band per lane. Approximate % ITK remaining per sample was calculated as follows: […]
Once % ITK remaining has been calculated for each sample, groups are averaged together to show an means % ITK normalized to actin and relative to control.
Compounds 16, 17, and 18 were administered to mice orally. After 6 hours or 24 hours, splenocytes cells were harvested. ITK was evaluated by Western blotting. Plasma concentrations were determined by LC/MS/MS. Plasma samples were protein precipitated by addition of 100 μl of acetonitrile containing 50 ng/ml of internal standard. The resulting mixture was vortexed and centrifuged at 4000 RPM for 5 minutes. […]

Structure (SMILES) | ITK (%) 90 mpk PO, 6 h | ITK degradation in vivo at 6 hours (FIG. 3A, FIG. 4A) | ITK degradation in vivo at 24 hours (FIG. 3A, FIG. 4A)
C[C@@H](C(=O)N(C)c1ccc2cc(-c3n[nH]c4c3C[C@@H]3C(F)(F)[C@]3(C)C4)[nH]c2c1)N1CCN(C[C@H]2CCN(c3ccc4c(c3)C(=O)N(C3CCC(=O)NC3=O)C4=O)C2)CC1 (stereo partly drawn) [Compound 9, (2S)—N-(2-((4aS,5aR)-5,5-difluoro-5a-methyl-1,4,4a,5,5a,6-hexahydrocyclopropa[f]indazol-3-yl)-1H-indol-6-yl)-2-(4-(((3R)-1-(2-(2,6-dioxopiperidin-3-yl)-1,3-dioxoisoindolin-5-yl)pyrrolidin-3-yl)methyl)piperazin-1-yl)-N-methylpropanamide] | 49.3% | – | –
C[C@@H](C(=O)N(C)c1ccc2cc(-c3n[nH]c4c3CCC(C)(C)C4)[nH]c2c1)N1CCN(CC2CCN(c3ccc(C4CCC(=O)NC4=O)cn3)CC2)CC1 (stereo partly drawn) [Compound 10, (2S)—N-(2-(6,6-dimethyl-4,5,6,7-tetrahydro-1H-indazol-3-yl)-1H-indol-6-yl)-2(4-((1-(5-(2,6-dioxopiperidin-3-yl)pyridin-2-yl)piperidin-4-yl)methyl)piperazin-1-yl)-N-methylpropanamide] | 11% | degraded ITK in vivo | –
C[C@@H](C(=O)N(C)c1ccc2cc(-c3n[nH]c4c3CCC(C)(C)C4)[nH]c2c1)N1CCN(CC2CCN(c3ccc(N4CCC(=O)NC4=O)cn3)CC2)CC1 [Compound 11, (S)—N-(2-(6,6-dimethyl-4,5,6,7-tetrahydro-1H-indazol-3-yl)-1H-indol-6-yl)-2-(4-((1-(5-(2,4-dioxotetrahydropyrimidin-1(2H)-yl)pyridin-2-yl)piperidin-4-yl)methyl)piperazin-1-yl)-N-methylpropanamide] | 116% | degraded ITK in vivo | –
C[C@@H](C(=O)N(C)c1ccc2cc(-c3n[nH]c4c3CCC(C)(C)C4)[nH]c2c1)N1CCN(C[C@H]2CCN(c3ccc4c(c3)CN(C3CCC(=O)NC3=O)C4=O)C2)CC1 (stereo partly drawn) [Compound 12, (2S)—N-(2-(6,6-dimethyl-4,5,6,7-tetrahydro-1H-indazol-3-yl)-1H-indol-6-yl)-2-(4-(((3R)-1-(2-(2,6-dioxopiperidin-3-yl)-1-oxoisoindolin-5-yl)pyrrolidin-3-yl)methyl)piperazin-1-yl)-N-methylpropanamide] | 82% | degraded ITK in vivo | –
Cn1c(=O)n(C2CCC(=O)NC2=O)c2cccc(N3CCC(CN4CCC5(CC4)CCN(c4ccc6cc(-c7n[nH]c8c7CCC(C)(C)C8)[nH]c6c4)C5=O)CC3)c21 (centres unmarked) [Compound 13, 3-(4-(4-((2-(2-(6,6-dimethyl-4,5,6,7-tetrahydro-1H-indazol-3-yl)-1H-indol-6-yl)-1-oxo-2,8-diazaspiro[4.5]decan-8-yl)methyl)piperidin-1-yl)-3-methyl-2-oxo-2,3-dihydro-1H-benzo[d]imidazol-1-yl)piperidine-2,6-dione] | 15% | degraded ITK in vivo | –
Cn1c(=O)n(C2CCC(=O)NC2=O)c2ccc(N3CCC(CN4CCC5(CC4)CCN(c4ccc6cc(-c7n[nH]c8c7CCC(C)(C)C8)[nH]c6c4)C5=O)CC3)cc21 (centres unmarked) [Compound 14, 3-(5-(4-((2-(2-(6,6-dimethyl-4,5,6,7-tetrahydro-1H-indazol-3-yl)-1H-indol-6-yl)-1-oxo-2,8-diazaspiro[4.5]decan-8-yl)methyl)piperidin-1-yl)-3-methyl-2-oxo-2,3-dihydro-1H-benzo[d]imidazol-1-yl)piperidine-2,6-dione] | 47% | degraded ITK in vivo | –
C[C@@]12Cc3[nH]nc(-c4cc5ccc(N6CCC7(CCN(Cc8ccc9c(c8)C(=O)N(C8CCC(=O)NC8=O)C9=O)CC7)C6=O)cc5[nH]4)c3C[C@@H]1C2(F)F (stereo partly drawn) [Compound 15, 5-((2-(2-((4aS,5aR)-5,5-difluoro-5a-methyl-1,4,4a,5,5a,6-hexahydrocyclopropa[f]indazol-3-yl)-1H-indol-6-yl)-1-oxo-2,8-diazaspiro[4.5]decan-8-yl)methyl)-2-(2,6-dioxopiperidin-3-yl)isoindoline-1,3-dione hydrochloride] | 18.3% | – | –
Cn1c(=O)n(C2CCC(=O)NC2=O)c2cccc(N3CCC(CN4CCC5(CC4)CCN(c4ccc6cc(-c7n[nH]c8c7C[C@@H]7C(F)(F)[C@]7(C)C8)[nH]c6c4)C5=O)CC3)c21 (stereo partly drawn) [Compound 16, 3-(4-(4-((2-(2-((4aS,5aR)-5,5-difluoro-5a-methyl-1,4,4a,5,5a,6-hexahydrocyclopropa[f]indazol-3-yl)-1H-indol-6-yl)-1-oxo-2,8-diazaspiro[4.5]decan-8-yl)methyl)piperidin-1-yl)-3-methyl-2-oxo-2,3-dihydro-1H-benzo[d]imidazol-1-yl)piperidine-2,6-dione] | 77% | degraded ITK in vivo | –
C[C@@H](C(=O)N(C)c1ccc2cc(-c3n[nH]c4c3C[C@@H]3C(F)(F)[C@]3(C)C4)[nH]c2c1)N1CCN(CC2CCN(c3ccc(C4CCC(=O)NC4=O)cn3)CC2)CC1 (stereo partly drawn) [Compound 17, (2S)—N-(2-((4aS,5aR)-5,5-difluoro-5a-methyl-1,4,4a,5,5a,6-hexahydrocyclopropa[f]indazol-3-yl)-1H-indol-6-yl)-2-(4-((1-(5-(2,6-dioxopiperidin-3-yl)pyridin-2-yl)piperidin-4-yl)methyl)piperazin-1-yl)-N-methylpropanamide] | 20% | degraded ITK in vivo | degraded ITK
C[C@@H](C(=O)N(C)c1ccc2cc(-c3n[nH]c4c3C[C@@H]3C(F)(F)[C@]3(C)C4)[nH]c2c1)N1CCN(CC2CCN(c3ccc(N4CCC(=O)NC4=O)cn3)CC2)CC1 [Compound 18, (S)—N-(2-((4aS,5aR)-5,5-difluoro-5a-methyl-1,4,4a,5,5a,6-hexahydrocyclopropa[f]indazol-3-yl)-1H-indol-6-yl)-2-(4-((1-(5-(2,4-dioxotetrahydropyrimidin-1(2H)-yl)pyridin-2-yl)piperidin-4-yl)methyl)piperazin-1-yl)-N-methylpropanamide] | 14% | degraded ITK in vivo | degraded ITK
